Test results published in PubChem BioAssay (NCI).
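These data come from cells grown in 96-well plates and exposed to compound for 48 hours at five concentrations. TGI denotes the concentration required for complete inhibition of growth.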

Tests used:
Assay in all cases: NCI anticancer screen, dose series, 48 h
CAKI-1 renal = system: CAKI-1 renal
EKVX NSCLC = system: EKVX NSCLC
HCT-116 colon = system: HCT-116 colon
HT29 colon = system: HT29 colon
IGROV1 ovarian = system: IGROV1 ovarian
MALME-3M melanoma = system: MALME-3M melanoma
NCI-H460 lung = system: NCI-H460 lung
OVCAR-3 ovarian = system: OVCAR-3 ovarian
RPMI-8226 leukemia = system: RPMI-8226 leukemia
SNB-19 CNS = system: SNB-19 CNS

| Structure (SMILES) | TGI (CAKI-1 renal) [µM] | TGI (EKVX NSCLC) [µM] | TGI (HCT-116 colon) [µM] | TGI (HT29 colon) [µM] | TGI (IGROV1 ovarian) [µM] | TGI (MALME-3M melanoma) [µM] | TGI (NCI-H460 lung) [µM] | TGI (OVCAR-3 ovarian) [µM] | TGI (RPMI-8226 leukemia) [µM] | TGI (SNB-19 CNS) [µM] |
| --- | --- | --- | --- | --- | --- | --- | --- | --- | --- | --- |
| COc1ccc(CN=C2Nc3ccncc3S(=O)(=O)N2c2ccccc2)cc1 | > 100 | > 100 | > 100 | > 100 | > 100 | > 100 | > 100 | > 100 | 42.3 | > 100 |
| C(/C=N/NC1=NCCN1)=N\NC1=NCCN1 | > 100 | > 100 | > 100 | > 100 | > 100 | > 100 | > 100 | > 100 | > 100 | > 100 |
| C/C(=N/NC(=S)N(Cc1ccccn1)Cc1ccccn1)c1cnccn1 | 8.08 | 7.4 | 14.2 | 10.3 | 2.78 | 7.53 | > 33.1 | 12.6 | > 37.4 | 18.8 |
| CC1(C)OC[C@@]2([C@@H]3CC[C@@H](C3)C2(C)C)N1O | > 100 | > 100 | > 100 | > 100 | > 100 | > 100 | > 100 | > 100 | > 100 | > 100 |
| COc1cc(/C=C/C(=O)O)ccc1O | > 100 | > 100 | > 100 | > 100 | > 100 | > 100 | > 100 | > 100 | > 100 | > 100 |
| CC1=NN(C(=O)CC(=O)Nc2cccc(Cl)c2)C(=O)C1N=Nc1ccc(S(=O)(=O)c2ccc(N=NC3C(=O)N(C(=O)CC(=O)Nc4cccc(Cl)c4)N=C3C)cc2)cc1 (stereo not given) | > 100 | > 100 | > 100 | > 100 | > 100 | > 100 | > 100 | > 100 | > 100 | > 100 |
| Cc1ccnc2c1c(=O)c1ccccc1n2C | 51.4 | > 100 | > 100 | 85.2 | > 100 | > 100 | 44.9 | > 100 | > 100 | > 100 |
| C=CCOc1ccc(C2c3c([nH][nH]c3=O)CC(C)(O)C2C(=O)OC)cc1OC (stereo not given) | > 100 | > 100 | > 100 | > 100 | > 100 | > 100 | > 100 | > 100 | > 100 | > 100 |
| COc1cccc2c1C(=O)c1ccc3cc(CO)cc(O)c3c1C2=O | 7.18 | 4.89 | 0.787 | 3.9 | 3.33 | 0.202 | 1.17 | 0.497 | 5.1 | 5.85 |
| CCOP(=O)(OCC)C(Cc1ccccc1)N=C(c1ccccc1)c1ccccc1 (stereo not given) | 31.6 | 34.3 | 30.8 | 27.6 | 26.8 | 40.9 | 31.9 | 30.3 | > 100 | 32.3 |
